Publication PMC11762957, “Rescue of Mutant CFTR Channel Activity by Investigational Co-Potentiator Therapy” (Biomedicines, 2025)

Experiments:
Format in all cases: cell-based
p.Arg334Trp-CFTR = target: T1, p.Arg334Trp-CFTR (Homo sapiens, UniProt P13569, R334W); assay: Micro-Ussing chamber measurements, polarized CFBE41o- monolayers expressing p.Arg334Trp-CFTR; conditions: after Fsk 0.128 μM
T1 construct: expressed in transfected cells
Description: CFBE41o^− cells expressing p.Arg334Trp-CFTR were seeded onto collagen IV-coated Snap-well filter inserts (#734-1646, Corning, New York, NJ, USA) to establish polarized monolayers. When the transepithelial electrical resistance of cells was ≥1000 Ω·cm^2, micro-Ussing chambers were mounted to measure transepithelial voltage (Vte) and transepithelial resistance (Rte), as noted before. Briefly, after the equilibration period, baseline values were recorded and compounds were added sequentially: Fsk (0.128 μM), test compound(s), and Inh-172 (30 μM). Recorded Vte and Rte were used to calculate the equivalent short-circuit current (Isceq) using Ohm’s law: Isc = Vte/Rte.
Next, we validated the data obtained by the HS-YFP assay by measuring short-circuit currents in the polarized monolayers of CFBE41o^− cells expressing p.Arg334Trp-CFTR to assess the alterations in the CFTR-mediated Cl^− current. Upon the activation of the cAMP-dependent CFTR-mediated Cl^− transport by Fsk, there was a small lumen-negative response, indicating the residual function of p.Arg334Trp-CFTR (Figure 3A–F).

p.Gly551Asp-CFTR = target: T2, p.Gly551Asp-CFTR (Homo sapiens, UniProt P13569, G551D); assay: HS-YFP assay, CFBE41o- cells transiently transfected with p.Gly551Asp-CFTR; conditions: LSO-24 5 μM, LSO-150 3 μM, VX-770 1 μM, ABBV-3067 10 μM, Fsk 5 μM
T2 construct: expressed in transfected cells; host or cells: CFBE41o- cells stably expressing HS-YFP, transient transfection of pcDNA5-CFTR
T2 sequence (P13569 whole entry G551D): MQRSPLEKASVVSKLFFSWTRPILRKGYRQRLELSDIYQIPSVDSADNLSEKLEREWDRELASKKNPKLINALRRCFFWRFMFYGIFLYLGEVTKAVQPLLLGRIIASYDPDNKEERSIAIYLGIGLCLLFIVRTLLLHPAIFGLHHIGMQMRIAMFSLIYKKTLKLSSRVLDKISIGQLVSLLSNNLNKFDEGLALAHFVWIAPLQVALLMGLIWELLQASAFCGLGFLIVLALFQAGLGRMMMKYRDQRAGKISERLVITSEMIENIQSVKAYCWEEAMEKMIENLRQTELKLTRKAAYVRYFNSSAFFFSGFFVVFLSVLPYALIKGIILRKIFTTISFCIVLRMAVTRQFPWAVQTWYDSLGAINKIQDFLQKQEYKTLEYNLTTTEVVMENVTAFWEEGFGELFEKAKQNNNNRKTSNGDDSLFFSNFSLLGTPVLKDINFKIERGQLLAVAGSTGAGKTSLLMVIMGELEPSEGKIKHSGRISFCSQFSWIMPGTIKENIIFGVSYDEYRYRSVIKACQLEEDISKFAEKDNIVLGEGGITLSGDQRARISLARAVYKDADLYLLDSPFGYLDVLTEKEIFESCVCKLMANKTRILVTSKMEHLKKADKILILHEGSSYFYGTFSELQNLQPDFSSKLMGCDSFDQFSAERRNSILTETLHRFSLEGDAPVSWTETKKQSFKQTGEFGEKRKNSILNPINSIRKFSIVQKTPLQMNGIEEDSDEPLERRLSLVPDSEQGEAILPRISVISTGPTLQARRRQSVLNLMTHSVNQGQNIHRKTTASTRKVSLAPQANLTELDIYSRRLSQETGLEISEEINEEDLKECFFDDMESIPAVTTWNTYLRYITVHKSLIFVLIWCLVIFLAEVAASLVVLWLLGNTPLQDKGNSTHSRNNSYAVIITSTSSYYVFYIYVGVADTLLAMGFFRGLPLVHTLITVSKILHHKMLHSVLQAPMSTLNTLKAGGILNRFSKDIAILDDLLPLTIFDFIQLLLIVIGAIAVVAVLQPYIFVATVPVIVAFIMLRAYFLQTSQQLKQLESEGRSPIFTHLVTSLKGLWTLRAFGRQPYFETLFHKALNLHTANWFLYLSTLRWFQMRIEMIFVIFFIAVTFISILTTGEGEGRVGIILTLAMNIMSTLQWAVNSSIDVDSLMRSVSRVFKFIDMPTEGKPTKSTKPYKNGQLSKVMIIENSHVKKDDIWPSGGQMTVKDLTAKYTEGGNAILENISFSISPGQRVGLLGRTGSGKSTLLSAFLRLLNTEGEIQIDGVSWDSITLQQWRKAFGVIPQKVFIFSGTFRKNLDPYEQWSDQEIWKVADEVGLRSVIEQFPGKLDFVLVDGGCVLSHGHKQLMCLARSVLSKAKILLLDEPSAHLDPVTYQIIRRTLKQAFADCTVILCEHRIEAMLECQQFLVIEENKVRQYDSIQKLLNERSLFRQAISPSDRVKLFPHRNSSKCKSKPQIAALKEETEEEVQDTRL
Description: (§1) Site-directed mutagenesis was performed using KOD HOT start DNA polymerase (#71086-3, Sigma-Aldrich, St. Louis, MO, USA), according to manufacturer’s instructions, to insert variants under study (c.613C>T or p.Pro205Ser; c.1645A>C or p.Ser549Arg; c.1647T>G or p.Ser549Arg; c.1652G>A or p.Gly551Asp; c.2834C>T or p.Ser945Leu; and c.4046G>A or p.Gly1349Asp) into CFTR cDNA cloned in the pcDNA5 expression vector. After confirmation by Sanger sequencing, CFBE41o^− cells expressing HS-YFP seeded onto 96-well plates were transfected with 0.1 µg per well of the indicated plasmid. Lipofectamine 3000 (#L3000015, ThermoFischer Scientific, Waltham, MA, USA) was used as the transfection agent diluted in Opti-MEM reduced serum medium (#31985070, ThermoFischer Scientific, Waltham, MA, USA) according to manufacturer’s instructions.
(§2) CFTR activity was determined by the HS-YFP microfluorimetric assay (described in detail in previous studies) using CFBE41o^− cells expressing HS-YFP together with stably expressed p.Arg334Trp-CFTR or transiently transfected with CFTR cDNA (variants p.Pro205Ser, p.Ser549Arg, p.Gly551Asp, p.Ser945Leu, and p.Gly1349Asp) cloned into pcDNA5. […] Thereafter, cells were transferred to a microplate reader (Tecan Infinite 200 Pro) equipped with high-quality excitation (485 ± 20 nm) and emission (535 ± 25 nm) filters for YFP. Each reading consisted of a continuous 14 s fluorescence recording with 2 s before and 12 s after injection of 165 μL of an iodide-containing solution (PBS with Cl^− replaced by I^−; final I^− concentration: 100 mM). Data were normalized to the initial background-subtracted fluorescence. […]
As CFTR variants with similar defect(s) may respond differently to the same treatment(s), we assessed whether LSO-24 or its derivative LSO-150, alone or in combination(s), could rescue CFTR activity for other variants with gating/conductance defects. […] After 24 h, the cells were acutely stimulated with Fsk plus test compound(s), and the cell fluorescence was recorded before and after the addition of an I^−-containing solution. […]

p.Ser945Leu-CFTR = target: T3, p.Ser945Leu-CFTR (Homo sapiens, UniProt P13569, S945L); assay: HS-YFP assay, CFBE41o- cells transiently transfected with p.Ser945Leu-CFTR; conditions: LSO-24 5 μM, LSO-150 3 μM, Fsk 5 μM
T3 construct: expressed in transfected cells; host or cells: CFBE41o- cells stably expressing HS-YFP, transient transfection of pcDNA5-CFTR
T3 sequence (P13569 whole entry S945L): as the sequence (P13569 whole entry G551D) above, with D551G, S945L counted along it
Description: as §1, with “Lipofectamine 3000 (#L3000015, ThermoFischer Scientific, Waltham, MA, USA) was used as the transfection agent diluted in Opti-MEM reduced serum medium (#31985070, ThermoFischer Scientific, Waltham, MA, USA) according to manufacturer’s instructions.” left out
as §2

T1 sequence (P13569 whole entry R334W): as the sequence (P13569 whole entry G551D) above, with R334W, D551G counted along it

Isceq, co-administration with VX-770 (p.Arg334Trp-CFTR; VX-770 3 μM + LSO-150 3 μM or LSO-153 5 μM, vs single potentiator): further response | Isceq (equivalent short-circuit current), single potentiator (p.Arg334Trp-CFTR; acute, LSO-150 3 μM, LSO-153 5 μM, VX-770 3 μM, vs DMSO): increase in Isceq | CFTR activity (fluorescence quenching rate), single compound (p.Gly551Asp-CFTR): increased CFTR activity | CFTR activity (fluorescence quenching rate), single compound (p.Ser945Leu-CFTR): increased CFTR activity
SMILES: CCOC(=O)c1ccc(-n2cc(C(O)c3ccc(Br)cc3)nn2)cc1 (stereo not shown) [LSO-150]
